Test results from patent US8952024B2, “Herbicidal pyrimidone derivatives” (E I du Pont de Nemours and Company, priority 2009, dated 2015).

Legend:
Test in all cases: Test B pre-/postemergence plant response
Type in all cases: in vivo
[1] = system: lambsquarters (Chenopodium album)
In short: (§1)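 Seeds sown in loam–sand blend were treated preemergence, and plants at 2–18 cm (1- to 4-leaf stage) in peat-based medium were treated postemergence; compounds were formulated in non-phytotoxic solvent with surfactant. After 13–15 days in greenhouse, response was visually rated against controls, 0 (no effect) to 100 (complete control).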

kochia (Kochia scoparia) = system: kochia (Kochia scoparia)
In short: as §1

[2] = system: johnsongrass (Sorghum halepense)
In short: as §1

[3] = system: velvetleaf (Abutilon theophrasti)
In short: as §1

soybean (Glycine max) = system: soybean (Glycine max)
In short: as §1

[4] = system: yellow nutsedge (Cyperus esculentus)
In short: as §1

[5] = system: large crabgrass (Digitaria sanguinalis)
In short: as §1

[6] = system: wheat (Triticum aestivum)
In short: as §1

[7] = system: ragweed (common ragweed, Ambrosia elatior)
In short: as §1

[8] = system: goosegrass (Eleusine indica)
In short: as §1

[9] = system: bermudagrass (Cynodon dactylon); conditions: for Bermudagrass plant response rating (0 to 100 scale): 0 is no effect
In short: as §1

[10] = system: woolly cupgrass (Eriochloa villosa)
In short: as §1

[11] = system: green foxtail (Setaria viridis)
In short: as §1

[12] = 31 g ai/ha, postemergence, scale 0 to 100, 0 is no effect, 100 is complete control
[13] = 62 g ai/ha, postemergence, 0 is no effect, 100 is complete control, 13 to 15 days
[14] = Postemergence, 250 g ai/ha, scale 0 to 100 (0 no effect, 100 complete control)
[15] = Postemergence, 125 g ai/ha, visual rating after 13 to 15 days, scale 0 (no effect) to 100 (complete control)
[16] = 62 g ai/ha, postemergence, 100 is complete control, 13 to 15 days
[17] = 250 g ai/ha, Preemergence, 0 to 100 scale
[18] = Postemergence, 62 g ai/ha, scale 0 (no effect) to 100 (complete control), 13 to 15 days
[19] = Postemergence, 250 g ai/ha, scale 0 to 100
[20] = Preemergence, 31 g ai/ha, scale 0 to 100 (0 no effect, 100 complete control)
[21] = Preemergence, 62 g ai/ha, scale 0 to 100 (0 no effect, 100 complete control)
[22] = Preemergence, 125 g ai/ha, 0 to 100 scale
[23] = Postemergence, 31 g ai/ha, scale 0 to 100 (0 no effect, 100 complete control)
[24] = Postemergence, 31 g ai/ha, 0 to 100 scale (0 no effect, 100 complete control)
[25] = Postemergence, 125 g ai/ha, scale 0 to 100 (0 no effect, 100 complete control)
[26] = Postemergence, 250 g ai/ha, scale 0 to 100 (0 no effect, 100 complete control), 13 to 15 days

CC(C)n1c(-c2ccccc2)ncc(C(=O)C2=C(O)CCCC2=O)c1=O [Compound 95]
45: Plant response rating, Johnsongrass [2, 14] | Plant response rating, Crabgrass, Large [5, 12] | Plant response rating, Bermudagrass [9, 12] | Plant response rating, Cupgrass, Woolly [10, 12]
85: Plant response rating, Velvetleaf [3, 12] | Plant response rating, Nutsedge, Yellow [4, 14]
90: Plant response rating, Goosegrass [8, 14] | Plant response rating, Bermudagrass [9, 14] | Plant response rating, Foxtail, Green [11, 14]
80: Plant response rating, Lambsquarters [1, 12] | Plant response rating, Kochia (kochia (Kochia scoparia); [12]) | Plant response rating, Crabgrass, Large [5, 14] | Ragweed plant response rating (0 to 100 scale) [7, 13]
55: Cupgrass, Woolly plant response rating (0 to 100 scale) [10, 13]
5: Plant response rating, Johnsongrass [2, 12]
95: Velvetleaf plant response rating (0 to 100 scale) [3, 13] | Plant response rating, Soybean (soybean (Glycine max); [12]) | Plant response rating, Ragweed [7, 14]
75: Plant response rating, Nutsedge, Yellow [4, 12] | Nutsedge, Yellow plant response rating (0 to 100 scale) [4, 13] | Plant response rating, Crabgrass, Large [5, 15] | Plant response rating, Ragweed [7, 12] | Goosegrass plant response rating (0 to 100 scale) [8, 13] | Bermudagrass plant response rating (0 to 100 scale) [9, 16] | Plant response rating, Bermudagrass [9, 15]
10: Johnsongrass plant response rating (0 to 100 scale) [2, 13]
100: Plant response rating, Lambsquarters [1, 14] | Kochia plant response rating (0 to 100 scale) (kochia (Kochia scoparia); [13]) | Plant response rating, Kochia (kochia (Kochia scoparia); [14]) | Plant response rating, Velvetleaf [3, 14]
50: Foxtail, Green plant response rating (0 to 100 scale) [11, 13]
98: Lambsquarters plant response rating (0 to 100 scale) [1, 13] | Soybean plant response rating (0 to 100 scale) (soybean (Glycine max); [13]) | Plant response rating, Soybean (soybean (Glycine max); [14])
65: Crabgrass, Large plant response rating (0 to 100 scale) [5, 13] | Plant response rating, Goosegrass [8, 12] | Plant response rating, Cupgrass, Woolly [10, 15] | Plant response rating, Cupgrass, Woolly [10, 14]
20: Plant response rating, Foxtail, Green [11, 12]
0: Plant response rating, Wheat [6, 12] | Wheat plant response rating (0 to 100 scale) [6, 13] | Plant response rating, Wheat [6, 14]

Cc1cc(C)cc(-n2c(-c3ccccc3)ncc(C(=O)C3=C(O)CCCC3=O)c2=O)c1 [Compound 33]
75: Plant response rating, Soybean (soybean (Glycine max); [17]) | Plant response rating, Nutsedge, Yellow [4, 15] | Plant response rating, Crabgrass, Large [5, 23] | Plant response rating, Goosegrass [8, 18] | Plant response rating, Bermudagrass [9, 23]
0: Plant response rating, Johnsongrass [2, 20] | Plant response rating, Johnsongrass [2, 21] | Johnsongrass plant response rating [2, 22] | Plant response rating, Nutsedge, Yellow [4, 20] | Plant response rating, Wheat [6, 18] | Plant response rating, Wheat [6, 20] | Plant response rating, Wheat [6, 21] | Wheat plant response rating [6, 22] | Plant response rating, Foxtail, Green [11, 20]
65: Soybean plant response rating (soybean (Glycine max); [22]) | Plant response rating, Cupgrass, Woolly [10, 23] | Plant response rating, Cupgrass, Woolly [10, 18]
35: Plant response rating, Johnsongrass [2, 18] | Plant response rating, Johnsongrass [2, 15]
90: Plant response rating, Velvetleaf [3, 18] | Plant response rating, Velvetleaf [3, 21] | Plant response rating, Nutsedge, Yellow [4, 17] | Plant response rating, Crabgrass, Large [5, 15] | Goosegrass plant response rating [8, 22] | Cupgrass, Woolly plant response rating [10, 19] | Plant response rating, Foxtail, Green [11, 15] | Foxtail, Green plant response rating [11, 19]
20: Plant response rating, Johnsongrass [2, 17]
45: Plant response rating, Nutsedge, Yellow [4, 21] | Plant response rating, Foxtail, Green [11, 21]
100: Plant response rating, Lambsquarters [1, 17] | Lambsquarters plant response rating [1, 19] | Plant response rating, Lambsquarters [1, 21] | Lambsquarters plant response rating [1, 22] | Plant response rating, Velvetleaf [3, 17] | Velvetleaf plant response rating [3, 22] | Plant response rating, Crabgrass, Large [5, 17] | Crabgrass, Large plant response rating [5, 22] | Plant response rating, Ragweed [7, 17] | Ragweed plant response rating [7, 22] | Plant response rating, Bermudagrass [9, 17] | Plant response rating, Bermudagrass [9, 21] | Bermudagrass plant response rating [9, 22] | Plant response rating, Foxtail, Green [11, 17] | Foxtail, Green plant response rating [11, 22]
85: Plant response rating, Crabgrass, Large [5, 18] | Plant response rating, Crabgrass, Large [5, 20] | Plant response rating, Ragweed [7, 21] | Plant response rating, Goosegrass [8, 15] | Goosegrass plant response rating [8, 19] | Plant response rating, Cupgrass, Woolly [10, 17] | Plant response rating, Foxtail, Green [11, 18]
95: Plant response rating, Kochia (kochia (Kochia scoparia); [15]) | Plant response rating, Ragweed [7, 18] | Plant response rating, Bermudagrass [9, 18]
98: Plant response rating, Lambsquarters [1, 18] | Plant response rating, Lambsquarters [1, 15] | Plant response rating, Lambsquarters [1, 20] | Kochia plant response rating (kochia (Kochia scoparia); [19]) | Plant response rating, Velvetleaf [3, 15] | Plant response rating, Soybean (soybean (Glycine max); [18]) | Plant response rating, Soybean (soybean (Glycine max); [15]) | Crabgrass, Large plant response rating [5, 19] | Plant response rating, Crabgrass, Large [5, 21] | Plant response rating, Ragweed [7, 15] | Plant response rating, Goosegrass [8, 17] | Plant response rating, Bermudagrass [9, 15] | Bermudagrass plant response rating [9, 19] | Plant response rating, Bermudagrass [9, 20]
60: Plant response rating, Soybean (soybean (Glycine max); [20]) | Plant response rating, Soybean (soybean (Glycine max); [21]) | Cupgrass, Woolly plant response rating [10, 22]
70: Nutsedge, Yellow plant response rating [4, 22] | Plant response rating, Cupgrass, Woolly [10, 15]
80: Plant response rating, Kochia (kochia (Kochia scoparia); [18]) | Plant response rating, Velvetleaf [3, 20] | Plant response rating, Ragweed [7, 20] | Plant response rating, Goosegrass [8, 20]
40: Johnsongrass plant response rating [2, 19]
50: Plant response rating, Nutsedge, Yellow [4, 18] | Plant response rating, Cupgrass, Woolly [10, 21] | Plant response rating, Foxtail, Green [11, 23]
10: Plant response rating, Cupgrass, Woolly [10, 20]
5: Plant response rating, Wheat [6, 17] | Plant response rating, Wheat [6, 15]

O=C1CCCC(O)=C1C(=O)c1cnc(-c2ccccc2)n(C2CCSCC2)c1=O [Compound 164]
95: Plant response rating, Johnsongrass [2, 25] | Plant response rating, Velvetleaf [3, 26] | Plant response rating, Crabgrass, Large [5, 24]
70: Plant response rating, Velvetleaf [3, 24] | Plant response rating, Nutsedge, Yellow [4, 25] | Plant response rating, Bermudagrass [9, 24] | Plant response rating, Foxtail, Green [11, 24]
85: Plant response rating, Ragweed [7, 24] | Plant response rating, Goosegrass [8, 24]
40: Plant response rating, Nutsedge, Yellow [4, 24]
50: Plant response rating, Wheat [6, 26]
35: Plant response rating, Wheat [6, 25]
45: Plant response rating, Johnsongrass [2, 24]
98: Plant response rating, Lambsquarters [1, 24] | Plant response rating, Kochia (kochia (Kochia scoparia); [24]) | Plant response rating, Johnsongrass [2, 26] | Plant response rating, Crabgrass, Large [5, 25] | Plant response rating, Ragweed [7, 25] | Plant response rating, Goosegrass [8, 25] | Plant response rating, Goosegrass [8, 26] | Bermudagrass plant response rating (0 to 100 scale) [9, 16] | Plant response rating, Bermudagrass [9, 25] | Plant response rating, Cupgrass, Woolly [10, 25] | Plant response rating, Foxtail, Green [11, 25]
0: Plant response rating, Wheat [6, 24]
100: Plant response rating, Lambsquarters [1, 25] | Plant response rating, Lambsquarters [1, 26] | Plant response rating, Kochia (kochia (Kochia scoparia); [25]) | Plant response rating, Kochia (kochia (Kochia scoparia); [26]) | Plant response rating, Soybean (soybean (Glycine max); [25]) | Plant response rating, Soybean (soybean (Glycine max); [26]) | Plant response rating, Crabgrass, Large [5, 26] | Plant response rating, Ragweed [7, 26] | Plant response rating, Bermudagrass [9, 26] | Plant response rating, Cupgrass, Woolly [10, 26] | Plant response rating, Foxtail, Green [11, 26]
75: Plant response rating, Nutsedge, Yellow [4, 26] | Plant response rating, Cupgrass, Woolly [10, 24]
80: Plant response rating, Velvetleaf [3, 25] | Plant response rating, Soybean (soybean (Glycine max); [24])
